Our source for the TGI values is PubChem BioAssay (NCI).

Some test systems named below: KM20L2 colon; KM12 colon; U251 CNS; OVCAR-4 ovarian; NCI-H460 lung; HCC-2998 colon; SF-295 CNS; HT29 colon; SR leukemia; SNB-78 CNS; NCI-H522 lung.
Assay in all cases: inhibition of tumour cell growth, NCI panel, 48 h

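Assay format: 96-well plates, 48-hour exposure. TGI: total growth inhibition.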 Some results are limits rather than exact numbers.

On to `CC1(C)OC[C@H](C(=N)OCc2ccccc2)O1`, for which the TGI in the test with KM20L2 colon, with KM12 colon, with U251 CNS, with OVCAR-4 ovarian, in the test on NCI-H460 lung and in the test with HCC-2998 colon was above 100 µM throughout. Further, the TGI in the test on SF-295 CNS, with HT29 colon, in the test on SR leukemia, in the test on SNB-78 CNS and with NCI-H522 lung was above 100 µM in each case.
In the case of `CC[C@@]1(O)C[C@H](OC2CC(N(C)C)C(O)C(C)O2)c2c(cc3c(c2O)C(=O)c2c(O)ccc(O)c2C3=O)[C@H]1C(=O)OC` (stereo not given in full), the TGI in the test on KM20L2 colon stood at 0.969 µM; with KM12 colon it was 1 µM; in the test on U251 CNS, 1.23 µM; in the test with OVCAR-4 ovarian it was 0.0918 µM; in the test on NCI-H460 lung it was 0.12 µM; with HCC-2998 colon, 0.579 µM. For the same molecule, the TGI is 0.389 µM in the test with SF-295 CNS, 0.559 µM with HT29 colon, 1.34 µM in the test on SNB-78 CNS and 0.501 µM in the test on NCI-H522 lung.
As for `O=C(CCBr)N1CCN(C(=O)CCBr)CC1`, the TGI in the test with KM20L2 colon came out at 277 µM; in the test with KM12 colon, 181 µM; in the test on U251 CNS it was 114 µM; in the test on OVCAR-4 ovarian, 181 µM; with NCI-H460 lung, 113 µM; in the test on HCC-2998 colon it was 140 µM. Also, the TGI is 212 µM in the test on SF-295 CNS; 280 µM in the test with HT29 colon; 174 µM with SR leukemia; 295 µM with SNB-78 CNS; 146 µM in the test on NCI-H522 lung.
With `CC1=NN(C(=O)Cc2ccccc2)C(=O)/C1=C\c1ccc([N+](=O)[O-])cc1`, the TGI in the test with KM20L2 colon, in the test on KM12 colon, in the test on U251 CNS, in the test on OVCAR-4 ovarian, with NCI-H460 lung and in the test with HCC-2998 colon was above 100 µM each time. Moreover, the TGI in the test with SF-295 CNS, in the test on HT29 colon, in the test on SNB-78 CNS and in the test on NCI-H522 lung was above 100 µM each time.
With `CN(C)CCNC(=O)c1cccc2ccc(-c3ccc(Br)cc3)nc12`, the TGI in the test on KM20L2 colon is 11.5 µM; in the test with KM12 colon it was 15.5 µM; in the test with U251 CNS, 12.2 µM; with OVCAR-4 ovarian, 8.5 µM; in the test on NCI-H460 lung, 2.77 µM; in the test with HCC-2998 colon it was 6.32 µM. Moreover, the TGI turned out to be 14.8 µM in the test with SF-295 CNS, 7.24 µM in the test on HT29 colon, 22.5 µM with SNB-78 CNS and 4.21 µM in the test on NCI-H522 lung.
With `CCC12CCCN(Cc3ccccc3)C1c1c(n(C)c3ccccc13)C(CO)C2` (stereo not given), the TGI with KM20L2 colon was 78.1 µM; in the test on KM12 colon it was 89.4 µM; in the test on U251 CNS, 134 µM; in the test on NCI-H460 lung, 73.8 µM; in the test on HCC-2998 colon, 121 µM; in the test with SF-295 CNS, 64.7 µM. In addition, the TGI in the test with HT29 colon amounted to 72.2 µM; in the test with SR leukemia it was 105 µM; in the test on NCI-H522 lung, 66.7 µM.
In the case of `CCc1cc(C)cc2[n+]1CC=C2`, the TGI in the test with KM20L2 colon is 95.6 µM; in the test with KM12 colon, above 100 µM; in the test with U251 CNS it was above 100 µM; with OVCAR-4 ovarian, above 100 µM; with NCI-H460 lung, 93.9 µM; with HCC-2998 colon it was above 100 µM. Besides, the TGI is above 100 µM in the test on SF-295 CNS, 75.2 µM with HT29 colon, above 100 µM in the test with SNB-78 CNS and 51.9 µM in the test on NCI-H522 lung.
In the case of `COC1OCC(O)C(NC(=O)N(C)N=O)C1O` (stereo not given), the TGI in the test with KM20L2 colon, with KM12 colon, in the test on U251 CNS, in the test on OVCAR-4 ovarian, in the test on NCI-H460 lung and in the test with HCC-2998 colon was above 100 µM throughout. Also, the TGI in the test on SF-295 CNS, with HT29 colon, in the test on SNB-78 CNS and in the test with NCI-H522 lung was above 100 µM throughout.
As to `O=C(Cc1nc2ccc(C(=O)c3ccccc3)cc2[nH]c1=O)C(=O)Nc1nc2ccccc2[nH]1`, the TGI in the test with KM20L2 colon, in the test on KM12 colon, with OVCAR-4 ovarian, in the test with NCI-H460 lung, with HCC-2998 colon and with SF-295 CNS was above 100 µM throughout. The TGI in the test on HT29 colon, with SR leukemia and in the test with NCI-H522 lung was above 100 µM throughout.
For `Nc1nc(NCCOCP(=O)(O)O)c([N+](=O)[O-])c(=O)[nH]1`, the TGI in the test with KM20L2 colon, in the test with KM12 colon, in the test on U251 CNS, in the test on NCI-H460 lung, in the test with HCC-2998 colon and in the test with SF-295 CNS was above 100 µM throughout. The TGI in the test with HT29 colon, in the test on SR leukemia, with SNB-78 CNS and with NCI-H522 lung was above 100 µM each time.
Consider `CN(C)C(=O)Oc1c(Br)cc(Br)cc1C(=O)OCc1ccccc1`, for which the TGI with KM20L2 colon is 57.7 µM; in the test on KM12 colon, 75.9 µM; in the test on U251 CNS, 56.2 µM; with OVCAR-4 ovarian it was above 100 µM; in the test with NCI-H460 lung it was 56.5 µM; in the test with HCC-2998 colon it was above 96.5 µM. The TGI was 55.7 µM in the test on SF-295 CNS, 19.2 µM in the test with HT29 colon, above 100 µM with SNB-78 CNS and above 100 µM with NCI-H522 lung.
